Experimental data reported in article PMC4491418, “Characterisation of Dermanyssus gallinae glutathione S-transferases and their potential as acaricide detoxification proteins” (Parasites & Vectors, 2015).

Experiments:
Type in all cases: biochemical
[1] = target: T1, rDeg-GST-1 (Dermanyssus gallinae, UniProt A0A0H4FNI7); assay: GSH-CDNB conjugation, A340nm; settings: 0-1 mM CDNB, 2 mM GSH, pH 6.5
T1 construct: full-length CDS (735 bp ORF, 244 aa) in pETSUMO; N-terminal His-tag and SUMO fusion kept; E. coli BL21-CodonPlus(DE3)-RIL; HisTrap purified
T1 sequence (A0A0H4FNI7 1-244): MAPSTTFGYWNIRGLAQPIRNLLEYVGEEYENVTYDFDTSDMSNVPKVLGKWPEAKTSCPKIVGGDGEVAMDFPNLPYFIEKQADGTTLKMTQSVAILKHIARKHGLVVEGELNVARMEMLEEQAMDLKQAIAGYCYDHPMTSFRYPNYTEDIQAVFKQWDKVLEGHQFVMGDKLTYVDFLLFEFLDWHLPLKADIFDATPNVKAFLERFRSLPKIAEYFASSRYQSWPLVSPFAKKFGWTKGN

[2] = target: T2, rDeg-GST-2 (Dermanyssus gallinae, UniProt A0A0H4FKJ9); assay: GSH-CDNB conjugation, A340nm; settings: 0-1 mM CDNB, 2 mM GSH, pH 6.5
T2 construct: full-length CDS (633 bp ORF, 210 aa) in pETSUMO; N-terminal His-tag and SUMO fusion kept; E. coli BL21-CodonPlus(DE3)-RIL; HisTrap purified
T2 sequence (A0A0H4FKJ9 1-210): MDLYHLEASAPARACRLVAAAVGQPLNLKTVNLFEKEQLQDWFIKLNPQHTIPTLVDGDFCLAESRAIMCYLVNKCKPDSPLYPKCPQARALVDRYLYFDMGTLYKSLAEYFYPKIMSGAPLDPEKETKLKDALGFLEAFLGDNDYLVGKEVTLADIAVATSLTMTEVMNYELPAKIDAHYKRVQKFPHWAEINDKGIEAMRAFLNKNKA

[3] = target: T3, rDeg-GST-3 (Dermanyssus gallinae, UniProt A0A0H4FPP8); assay: GSH-CDNB conjugation, A340nm; settings: 0-1 mM CDNB, 2 mM GSH, pH 6.5
T3 construct: full-length CDS (669 bp ORF, 222 aa) in pETSUMO; N-terminal His-tag and SUMO fusion kept; E. coli BL21-CodonPlus(DE3)-RIL; HisTrap purified
T3 sequence (A0A0H4FPP8 1-222): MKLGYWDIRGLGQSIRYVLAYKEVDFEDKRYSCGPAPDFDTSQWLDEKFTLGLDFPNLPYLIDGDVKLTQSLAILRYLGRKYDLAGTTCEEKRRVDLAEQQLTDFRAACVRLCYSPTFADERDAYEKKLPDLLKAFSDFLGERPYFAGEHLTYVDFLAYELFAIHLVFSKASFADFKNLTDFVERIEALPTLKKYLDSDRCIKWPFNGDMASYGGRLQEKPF

[4] = target: T3, rDeg-GST-3; assay: inhibition of GSH-CDNB conjugation, A340nm; settings: 100 µM; 1 mM CDNB, 2 mM GSH, pH 6.5 substrate buffer; 10 min preincubation at RT; mode not determined
Text: inhibition of GSH-CDNB conjugation, A340nm on rDeg-GST-3

[5] = target: T2, rDeg-GST-2; assay: inhibition of GSH-CDNB conjugation, A340nm; settings: 100 µM; 1 mM CDNB, 2 mM GSH, pH 6.5 substrate buffer; 10 min preincubation at RT; mode not determined
Text: inhibition of GSH-CDNB conjugation, A340nm on rDeg-GST-2

[6] = target: T1, rDeg-GST-1; assay: inhibition of GSH-CDNB conjugation, A340nm; settings: 100 µM; 1 mM CDNB, 2 mM GSH, pH 6.5 substrate buffer; 10 min preincubation at RT; mode not determined
Text: inhibition of GSH-CDNB conjugation, A340nm on rDeg-GST-1

Compound	GSH-CDNB conjugation, A340nm [1]	GSH-CDNB conjugation, A340nm [2]	GSH-CDNB conjugation, A340nm [3]	% reduction in Deg-GST activity ± SEM / rDeg-GST-3 (1.5 μg GST/well) [4]	% reduction in Deg-GST activity ± SEM / rDeg-GST-2 (1.5 μg GST/well) [5]	% reduction in Deg-GST activity ± SEM / rDeg-GST-1 (0.3 μg GST/well) [6]
O=[N+]([O-])c1ccc(Cl)c([N+](=O)[O-])c1 [1-chloro-2,4-dinitrobenzene]	All three rDeg-GSTs were enzymically-active molecules capable of catalyzing the conjugation of GSH to CDNB	All three rDeg-GSTs were enzymically-active molecules capable of catalyzing the conjugation of GSH to CDNB	All three rDeg-GSTs were enzymically-active molecules capable of catalyzing the conjugation of GSH to CDNB	–	–	–
CCOP(=S)(OCC)ON=C(C#N)c1ccccc1 [Phoxim]	–	–	–	20.56 ± 2.5%	14.8 ± 1.5%	56.38 ± 3.0%
CC1(C)C(C=C(Cl)Cl)C1C(=O)OCc1cccc(Oc2ccccc2)c1 (stereo not shown) [Permethrin]	–	–	–	–	–	35.39 ± 0.9%
